B1: IL-12: inflammatory cytokine purchased from R&D System (protein, UniProt P29459 23-219; P29460 23-328, looked up)
Interleukin-12 subunit alpha: RNLPVATPDPGMFPCLHHSQNLLRAVSNMLQKARQTLEFYPCTSEEIDHEDITKDKTSTVEACLPLELTKNESCLNSRETSFITNGSCLASRKTSFMMALCLSSIYEDLKMYQVEFKTMNAKLLMDPKRQIFLDQNMLAVIDELMQALNFNSETVPQKSSLEEPDFYKTKIKLCILLHAFRIRAVTIDRVMSYLNAS
Interleukin-12 subunit beta: IWELKKDVYVVELDWYPDAPGEMVVLTCDTPEEDGITWTLDQSSEVLGSGKTLTIQVKEFGDAGQYTCHKGGEVLSHSLLLLHKKEDGIWSTDILKDQKEPKNKTFLRCEAKNYSGRFTCWWLTTISTDLTFSVKSSRGSSDPQGVTCGAATLSAERVRGDNKEYEYSVECQEDSACPAAEESLPIEVMVDAVHKLKYENYTSSFFIRDIIKPDPPKNLQLKPLKNSRQVEVSWEYPDTWSTPHSYFSLTFCVQVQGKSKREKKDRVFTDKTSATVICRKNASISVRAQDRYYSSSWSEWASVPCS

Tests used:
[1] = tested on: M. tuberculosis-specific T cells; assay: QuantiFERON-TB Gold In-Tube (QFT-GIT) whole blood IFN-γ release assay with immunomodulation by TLR agonists; conditions: for IFN-γ responses compared to the standard assay in anergic subjects / IFN-γ response at intermediate concentration / enhancement of IFN-γ response (median): poly(I:C) 40 μg/ml, imiquimod 2 μg/ml; for IFN-γ responses compared to the standard assay in anergic subjects: P <0.05; for IFN-γ response compared to the standard assay, two concentrations: 8 subjects with LTBI, poly(I:C) 10 and 100 μg/ml, LPS 125 and 500 pg/ml, imiquimod 1 and 5 μg/ml; for enhancement of IFN-γ response (median): vs standard QFT-GIT; for recapitulation of the effects of TLR agonists on the QFT-GIT assay: IL-6 at 200 and 2000 pg/ml, IL-12 at 12.5 and 25 pg/ml, INF-α at 15 and 30 pg/ml, alone or in combination; for kinetics of IFN-γ release: QFT-GIT with immunomodulation vs without, correlated with cytokine induction / APC maturation
Text: Healthy adults were recruited from the Stanford Hospital clinical laboratories using a protocol approved by the Institutional Review Board. After obtaining in informed consent, volunteers were asked to complete a standardized questionnaire to assess risk factors for TB exposure. LTBI was defined as prior history of positive TST and QFT-GIT and ≧1 risk factor for LTBI. Uninfected control was defined as US born with prior negative TST and QFT-GIT and no risk factors.
The QFT-GIT assay was performed according to package insert with a slight modification described below. Up to 10 μA of each TLR agonist or an equivalent volume of endotoxin-free water was added to each QFT-GIT tube. Blood was collected in a 10 mL Kendall Monoject Green Stopper tube and 1 mL was quickly transferred to each QFT-GIT tube. Tubes were placed in a 3TC incubator for 22 hours or as indicated. ELISA was performed according to package insert. […] Calculation of IFN-γ concentrations was done with the software provided by the manufacturer.
Statistical analyses were performed using the Prism software (Graph Pad, San Diego, Calif.). The Wilcoxon's test of medians was used to compare differences in medians. All statistical tests were computed for a two-sided type I error rate of 5%.

[2] = tested on: blood cells in the Nil tube; assay: Cytokine profiling of plasma from the QFT-GIT Nil tube after immunomodulation; type: cell-based, human; conditions: poly(I:C) 40 μg/ml, LPS 250 pg/ml, 22 h
Procedure: Was performed at the Human Immune Monitoring Center (HIMC) at Stanford University. 100 μl of plasma from the QFT-GIT Nil tube was subjected to cytokine profiling. Procarta Cytokine Assay custom 51-plex kit (Affymetrix, Palo Alto, Calif.) was used according to manufacturer's recommendations.

antigen presenting cells = assay: Flow cytometry of surface expression of MHC and costimulatory molecules in the QFT-GIT assay; type: cell-based, human; conditions: compared to unstimulated blood cells; LPS 250 pg/ml, poly(I:C) 40 μg/ml; 3 and 6 hours
Procedure: The QFT-GIT tubes were incubated upside down to prevent migration of cells into the gel layer. At the end of incubation 100 μl of 20 mM EDTA was added per tube. Samples were vortexed and incubated at room temperature for 15 minutes. Blood was transferred to a 15 ml polypropylene tube containing 9 ml of 1×FACS™ Lysing Solution (BD Biosciences, Immunocytometry Systems, San Jose, Calif.). Samples were incubated at room temperature for 10 minutes and directly transferred to a −70° C. freezer for storage. The cell surface immune profiling studies were performed at the HIMC. The cells were thawed in warm media, washed once with FACS buffer (PBS supplemented with 2% FBS and 0.1% sodium azide) and resuspended at 1×10^7 viable cells/ml. 5×10^5 cells per well were stained for 45 min at room temperature with the following antibodies: All reagents were purchased from BD Biosciences. Cells were washed three times with FACS buffer, and resuspended in […]. 10,000 cells per sample were collected using DIVA 6.0 software on an LSR11 flow cytometer (BD Biosciences). Data analysis was performed using FlowJo v9.3 by gating on live cells based on forward versus side scatter profiles, then on singlets using forward scatter area versus height, followed by cell subset-specific gating.

[3] = 8 individuals with histories of LTBI but currently negative QFT-GIT, LPS 250 pg/ml
[4] = subjects with LTBI, LPS 250 pg/ml
[5] = uninfected controls, LPS 250 pg/ml

Molecule	IFN-γ responses compared to the standard assay in anergic subjects [1, 3]	IFN-γ response compared to the standard assay, two concentrations [1]	IFN-γ response at intermediate concentration [1, 4]	enhancement of IFN-γ response (median) [1, 4] [fold]	IFN-γ response at intermediate concentration [1, 5]	recapitulation of the effects of TLR agonists on the QFT-GIT assay [1]	levels of IL-6, IL-12 p40, IFN-α, and other cytokines [2]	surface expression of MHC II and costimulatory molecules in monocytes and partially in B cells and myeloid dendritic cells (antigen presenting cells)	consistency in eliciting a response higher than the cutoff value for the standard assay ([1]; 8 individuals with histories of LTBI but currently negative QFT-GIT, cutoff 0.35 IU/ml)	kinetics of IFN-γ release [1]	magnitude of the IFN-γ responses (TB Ag minus Nil) [1, 5] [IU/ml]
CC(C)Cn1cnc2c(N)nc3ccccc3c21 [imiquimod]	significantly increased	dose-dependent enhancement	significant enhancement	3	not in the uninfected controls						
IL-6: inflammatory cytokine purchased from R&D System						failed to recapitulate					
lipopolysaccharide [LPS]	significantly increased	dose-dependent enhancement	significant enhancement	3.1	significantly increased		significantly increased	increased	most consistent	earlier and more robust release of IFN-γ	≤ 0.5
poly(I:C)	significantly increased	dose-dependent enhancement	significant enhancement	5.7	not in the uninfected controls		significantly increased	not		earlier and more robust release of IFN-γ	
B1						failed to recapitulate					

From patent US8771967B2, “Immunomodulation of functional T cell assays for diagnosis of infectious or autoimmune disorders” (priority 2010, dated 2014)
